≈ marks a conversion by molar mass, not a printed value. Where two headings read alike, the source gives them in different places.
How the values were obtained:
[1] = system: S. aureus ATCC 13709^A, Novobiocin and Rifampicin resistant variant; experiment: Antibacterial susceptibility (MIC), NCCLS broth microdilution; assay type: cell-based; details: for MIC: Staphylococcus aureus, ATCC13709, read-out: Minimum inhibitory concentration, S. aureus ATCC 13709^A
Description: (§1) Susceptibility of S. aureus strains to the known antibiotics and synthesized compounds was determined by following the guidelines set by NCCLS (M26-A). Compounds were diluted two-fold serially in DMSO and transferred to cation-adjusted Mueller Hinton broth (CAMHB; Becton Dickinson). 50 μL of compounds diluted in CAMHB was mixed with 100 μL of bacteria diluted in CAMHB in 96-well microtiter plates. The final concentration of micro-organisms in the assay was 5×10^5c.f.u. per mL and the final concentration of DMSO in the assay was 1.25%. Assays were set up in duplicate and incubated at 37° C. for 18 h. The lowest concentration of compound that inhibited visible growth was reported as the minimum inhibitory concentration (MIC).

S. aureus ATCC 29213 = experiment: as above; assay type: cell-based; details: for Minimum inhibitory concentration, S. aureus ATCC 29213: CAMHB, 37° C., 18 h; for MIC: Staphylococcus aureus, ATCC29213, 18 h, read-out: Minimum inhibitory concentration, S. aureus ATCC 29213
Description: as §1

S. aureus ATCC 13709 [2] = experiment: microbe, parasite or virus in culture; assay type: cell-based; details: for Minimum inhibitory concentration, S. aureus ATCC 13709: CAMHB, 37° C., 18 h; for MIC: Staphylococcus aureus, ATCC13709, 18 h, read-out: Minimum inhibitory concentration, S. aureus ATCC 13709
Description: as §1

S. aureus ATCC 13709 [3] = experiment: microbe, parasite or virus in culture; assay type: cell-based; details: for Serum dependence of antibacterial activity (in words): MIC with versus without serum; for MIC: Staphylococcus aureus, ATCC13709, 18 h
Description: as §1
Susceptibility testing experiments were also carried out in the presence of serum. These experiments were carried out similar to the susceptibility testing with the following modifications. 75 μL of compounds diluted in CAMHB was mixed with 75 μL of bacteria diluted in 100% serum from any given source (commercial pooled mouse serum (MS) and human serum (HS), Equitech-Bio Inc.) or diluted in 8% purified human serum albumin (HSA) (Calbiochem). The final concentration of animal serum in the assay was 50% and the final concentration of purified human serum albumin in the assay was 4%; the concentrations of all other components were identical to those described for susceptibility testing.

[4] = system: Novobiocin resistant mutant strain of S. aureus ATCC 13709; experiment: Prophylactic efficacy in rat model of S. aureus bone infection; assay type: in vivo; details: for Measured bacterial titer, test compound: 20 mg/kg parent drug equivalent, tibia 24 h postinfection; for Prophylactic activity in rat bone infection model (in words): 20 mg/kg, 1 day or 5 days prior to infection
Description: To determine the in vivo activity of bisphosphonated prodrugs of Rifamycin derived antibacterials in comparison to their non-bisphosphonated parents, compounds 18, 19, 48a, 59, 66, 89, 95, 102, 110, 142b and 164 and their parent drug rifabutin were used as prophylactic therapeutics in an animal model of infection. Specifically, a spontaneous Novobiocin resistant mutant strain of S. aureus ATCC 13709 (a clinical osteomyelitis isolate), was grown overnight at 37° C. in brain heart infusion broth (BHIB). After 16 h of growth, cells were subcultured into fresh BHIB and incubated for 4 to 5 h at 37° C. The cells were washed twice with phosphate-buffered saline (PBS) and resuspended in BHIB supplemented with 10% (vol./vol.) fetal bovine serum at a density of approximately 10^10 colony forming units (CFU)/ml (based upon turbidimetry). The suspension was aliquoted and a portion was used to check the CFU count. The culture was stored frozen (−80° C.) and was used without subculture. For use as an inoculum the culture was thawed, diluted in PBS and kept in an ice bath until it was used.
Animals were infected as described by O'Reilly et al. (Antimicrobial Agents and Chemotherapy (1992), 36(12): 2693-97) to generate the bone infection. Female CD rats (age, 57 to 70 days; n=5/group; Charles River, St-Constant, Canada) were anaesthetized by isofluorane before and during the surgery. Following complete induction of anesthesia, the rat was placed ventral side up and hair was shaved from the surgical site. The skin over the leg was cleaned and disinfected (proviodine-ethanol 70%). A longitudinal incision below the knee joint was made in the sagital plane. The incision was made over the bone below the “knee joint” (tibia head or condyle) but not completely extending to the ankle. A high speed drill fitted with a 2 mm bulb bit was used to drill a hole into the medullar cavity of the tibia. Rats were injected intra-tibially with 0.05 ml 5% sodium morrhuate (sclerosing agent) and then with 0.05 ml of S. aureus suspension (ca. 2×10^7 CFU/rat). The hole was sealed by applying a small amount of dry dental cement which immediately absorbs fluids and adheres to the site. The wound was closed using 3 metal skin clips. Moxifloxacin (as a positive control) was injected once at 10 mg/kg intravenously 1 h postinfection in saline, while the Rifabutin derived prodrugs (prepared in 0.9% saline) were injected at the dose indicated in Table 3 as a single intravenous bolus at different time points prior to the infection.
Infected rats were sacrificed by CO2 asphyxiation 24 h postinfection to monitor the bacterial CFU count. Infected tibiae were removed, dissected free of soft tissue, and weighed. The bones were ground, 50 mg of charcoal were added and the powder was resuspended in 5 ml 0.9% NaCl, serially diluted and processed for quantitative cultures. Treatment efficacy was measured in terms of Log viable bacteria (Log CFU per gram of bone). […] The limit of detection is 2 Log CFU. Statistical comparisons of viable bacterial counts for the different treated and untreated groups were performed with the Dunnett's multiple-comparison test. Differences were considered significant when the P value was <0.05 when comparing treated infected animals to the untreated infected ones. The doses used, the amount of time separating the treatment from the time of infection and the treatment outcomes are shown in Table 3.

[5] = assay type: in vitro ADME; details: for % Conversion (prodrug converted to parent drug after binding to bone): 24 h incubation, 37° C.
Description: Amounts of parent drug “regenerated” from the phosphonated prodrug were measured as follows. Washed bone powder-bound prodrugs from the above experiment were resuspended in 400 μL PBS+2% DMSO or in 400 μL 50% (v/v in PBS+2% DMSO) human or rat serum. The suspension was incubated overnight at 37° C., centrifuged at 13,000 rpm for 2 min and the supernatant was recovered. The amount of regenerated parent drug in the supernatant was determined by measurements using the microbiological assay that was previously described for the prodrugs themselves. The amount of prodrug was deduced from standard curves of known amounts of parent drug that were used as reference for each experiment. The amount of regenerated drug assessed by this bioassay was corroborated by MIC determination. The percentage of drug regenerated in PBS or serum after the overnight incubation (Table 2) was deduced from the difference between the amount of bound prodrug and the amount of regenerated drug (not shown).

[6] = single intravenous bolus 1 day prior to infection
[7] = read-out: Minimum inhibitory concentration, ATCC 13709 + 50% Human Serum
[8] = read-out: Minimum inhibitory concentration, ATCC 13709 + 50% Mouse Serum
[9] = read-out: Minimum inhibitory concentration, ATCC 13709 + 50% Rat Serum
[10] = single intravenous bolus 5 days prior to infection

| Structure (SMILES) | Minimum inhibitory concentration, S. aureus ATCC 13709^A [1] [µg/mL] | Minimum inhibitory concentration, S. aureus ATCC 29213 (S. aureus ATCC 29213) [µg/mL] | Minimum inhibitory concentration, S. aureus ATCC 13709 (S. aureus ATCC 13709 [2]) [µg/mL] | Minimum inhibitory concentration, ATCC 13709 + 50% Human Serum (S. aureus ATCC 13709 [3]) [µg/mL] | Minimum inhibitory concentration, ATCC 13709 + 50% Mouse Serum (S. aureus ATCC 13709 [3]) [µg/mL] | Minimum inhibitory concentration, ATCC 13709 + 50% Rat Serum (S. aureus ATCC 13709 [3]) [µg/mL] | Serum dependence of antibacterial activity (in words) (S. aureus ATCC 13709 [3]) | Measured bacterial titer, test compound [4, 6] | Prophylactic activity in rat bone infection model (in words) [4] | MIC [1] [µg/mL] | MIC (S. aureus ATCC 29213) [µg/mL] | MIC (S. aureus ATCC 13709 [2]) [µg/mL] | MIC (S. aureus ATCC 13709 [3]; [7]) [µg/mL] | MIC (S. aureus ATCC 13709 [3]; [8]) [µg/mL] | MIC (S. aureus ATCC 13709 [3]; [9]) [µg/mL] | Measured bacterial titer, test compound [4, 10] | other results |
| --- | --- | --- | --- | --- | --- | --- | --- | --- | --- | --- | --- | --- | --- | --- | --- | --- | --- |
| CCC(=O)OCOC(=O)N(CCCC(P(=O)(O)O)P(=O)(O)O)CCOC(=O)N1C2=C3NC(=O)/C(C)=C\C=C\[C@H](C)[C@H](O)[C@@H](C)[C@@H](O)[C@@H](C)[C@H](OC(C)=O)[C@H](C)[C@@H](OC)/C=C/O[C@@]4(C)Oc5c(C)c(O)c(c(c5C4=O)C2=NC12CCN(CC(C)C)CC2)C3=O [Compound 164] | >128 | 4 (≈ 3.12 µM) | 4 (≈ 3.12 µM) | 8 | 2 | 0.25 | significant increase in antibacterial activity in serum | 5.48 ± 0.64 Log CFU/g of bone | ineffective at 1 day | – | – | – | – | – | – | – | – |
| CO[C@H]1/C=C/O[C@@]2(C)Oc3c(C)c(O)c4c(c3C2=O)C2=NC3(CCN(CC(C)C)CC3)NC2=C(NC(=O)/C(C)=C\C=C\[C@H](C)[C@H](OC(=O)CN(CCCCC(P(=O)(O)O)P(=O)(O)O)CCNC(=O)OCc2ccc(OC(C)=O)cc2)[C@@H](C)[C@@H](O)[C@@H](C)[C@H](OC(C)=O)[C@@H]1C)C4=O [Compound 66] | – | – | – | – | – | – | significant increase in antibacterial activity in serum | 1.97 ± 0.05 Log CFU/g of bone | – | > 128 | 4 (≈ 2.92 µM) | 4 (≈ 2.92 µM) | 4 | 0.125 | 0.008 | – | – |
| CCC(=O)OCOC(=O)N[C@@H](CCCCNC(=O)CCC(P(=O)(O)O)P(=O)(O)O)C(=O)N(C)CC(=O)O[C@@H]1[C@@H](C)[C@@H](O)[C@@H](C)[C@H](OC(C)=O)[C@H](C)[C@@H](OC)/C=C/O[C@@]2(C)Oc3c(C)c(O)c4c(c3C2=O)C2=NC3(CCN(CC(C)C)CC3)NC2=C(NC(=O)/C(C)=C\C=C\[C@@H]1C)C4=O.N.N [Compound 95] | >128 | 4 | 4 | 16 | 0.0625 | 0.0156 | significant increase in antibacterial activity in serum | 2.3 ± 0.57 Log CFU/g of bone | active at 1 day and display activity similar to rifabutin at 5 days | – | – | – | – | – | – | 3.75 ± 0.54 Log CFU/g of bone | Release of parent rifabutin from bone powder-bound prodrug (in words) [5]: regeneration is clearly accelerated by the presence of serum; % Conversion (prodrug converted to parent drug after binding to bone) ([5]; 50% Heat Inactivated Rat Serum): 0.13%; % Conversion (prodrug converted to parent drug after binding to bone) ([5]; 50% Rat Serum): 0.14 ± 0.06%; % Conversion (prodrug converted to parent drug after binding to bone) ([5]; PBS): 0.02% |
| CCC(=O)OCOC(=O)N[C@@H](CCC(=O)Nc1ccc(CC(P(=O)(O)O)P(=O)(O)O)cc1)C(=O)N(C)CC(=O)O[C@@H]1[C@@H](C)[C@@H](O)[C@@H](C)[C@H](OC(C)=O)[C@H](C)[C@@H](OC)/C=C/O[C@@]2(C)Oc3c(C)c(O)c4c(c3C2=O)C2=NC3(CCN(CC(C)C)CC3)NC2=C(NC(=O)/C(C)=C\C=C\[C@@H]1C)C4=O.N.N [Compound 110] | >128 | 8 | 8 | 8 | 0.125 | 0.0156 | significant increase in antibacterial activity in serum | 1.94 ± 0.04 Log CFU/g of bone | – | – | – | – | – | – | – | – | – |
| CCC(=O)OCOC(=O)NCC(=O)OCCN(CCCCC(P(=O)(O)O)P(=O)(O)O)CC(=O)O[C@@H]1[C@@H](C)[C@@H](O)[C@@H](C)[C@H](OC(C)=O)[C@H](C)[C@@H](OC)/C=C/O[C@@]2(C)Oc3c(C)c(O)c4c(c3C2=O)C2=NC3(CCN(CC(C)C)CC3)NC2=C(NC(=O)/C(C)=C\C=C\[C@@H]1C)C4=O [Compound 59] | – | – | – | – | – | – | – | 1.95 ± 0.06 Log CFU/g of bone | – | > 128 | 0.125 (≈ 0.0916 µM) | 0.125 (≈ 0.0916 µM) | 0.0625 | 0.0312 | 0.008 | – | Antibacterial activity (in words, from Table 1) (S. aureus ATCC 13709 [2]; S. aureus MIC): very low MICs whether in the absence or in the presence of serum |
| CCCC(=O)OCCN(CCCCC(P(=O)(O)O)P(=O)(O)O)CC(=O)O[C@@H]1[C@@H](C)[C@@H](O)[C@@H](C)[C@H](OC(C)=O)[C@H](C)[C@@H](OC)/C=C/O[C@@]2(C)Oc3c(C)c(O)c4c(c3C2=O)C2=NC3(CCN(CC(C)C)CC3)NC2=C(NC(=O)/C(C)=C\C=C\[C@@H]1C)C4=O [Compound 48a] | >128 | 2 (≈ 1.6 µM) | 2 (≈ 1.6 µM) | 8 | 2 | 0.25 | significant increase in antibacterial activity in serum | 2.53 ± 0.94 Log CFU/g of bone | more potent than rifabutin at 5 days | – | – | – | – | – | – | 2.65 ± 0.85 Log CFU/g of bone | – |

— patent publication US8524691B2, “Phosphonated rifamycins and uses thereof for the prevention and treatment of bone and joint infections” (The Medicines Company, priority 2008, dated 2013)
